Data set [1] addresses T1, CgHSD (Corynebacterium glutamicum, UniProt P08499, G378E).
T1 construct: gene hom; full-length hom in pET-28a, N-terminal His6 tag, expressed in E. coli Transetta (DE3), Ni purified; homotetramer by SEC
In words: enzyme activity inhibition, NADPH formation. It is filed as biochemical. The note with it: allosteric; 50 mM L-isoleucine; stated gain.

Data set [2] addresses T2, CgHSD (Corynebacterium glutamicum, UniProt P08499, I397V).
T2 construct: gene hom; full-length hom in pET-28a, N-terminal His6 tag, expressed in E. coli Transetta (DE3), Ni purified; homotetramer by SEC
In words: enzyme activity inhibition, NADPH formation. It is filed as biochemical. The settings on record: allosteric; 50 mM L-isoleucine; stated gain.

Data set [3] has as its target T3, CgHSD (Corynebacterium glutamicum, UniProt P08499).
T3 construct: gene hom; full-length hom in pET-28a, N-terminal His6 tag, expressed in E. coli Transetta (DE3), Ni purified; homotetramer by SEC
The data set is described as follows: enzyme activity inhibition, NADPH formation. The note with it: feedback inhibitor, allosteric; 5 mM L-isoleucine. It is filed as biochemical.

Data set [4] has as its target T4, CgHSD (Corynebacterium glutamicum, UniProt P08499, A384D).
T4 construct: gene hom; full-length hom in pET-28a, N-terminal His6 tag, expressed in E. coli Transetta (DE3), Ni purified; homotetramer by SEC
In words: enzyme activity inhibition, NADPH formation. Format: biochemical. The note with it: allosteric; 50 mM L-isoleucine; stated gain.

The target of data set [5] is T1, CgHSD. The data set is described as follows: enzyme activity inhibition, NADPH formation. It is filed as biochemical. The settings on record: allosteric; 50 mM L-threonine; stated gain.
The target of data set [6] is T4, CgHSD. The data set is described as follows: enzyme activity inhibition, NADPH formation. It is filed as biochemical. The note with it: allosteric; 10 mM L-threonine; stated gain.
For data set [7], the target named is T2, CgHSD. The data set is described as follows: enzyme activity inhibition, NADPH formation. It is filed as biochemical. The settings on record: allosteric; 10 mM L-threonine; stated gain.
For data set [8], the target named is T3, CgHSD. In words: enzyme activity inhibition, NADPH formation. It is filed as biochemical. The note with it: feedback inhibitor, allosteric; 1 mM L-threonine.
Data set [9] concerns the molecule itself. The data set is described as follows: SEC; apparent molecular mass from a standard curve; peaks at 11.8 mL of elution volume; column and buffer not shown (Supplementary Figure S2). On the technique in general: Size exclusion chromatography separates by hydrodynamic size, large species first.

As a reminder, the stoichiometry N is the number of molecules, sites or subunits per partner or assembly.

T1 sequence (P08499 whole entry G378E): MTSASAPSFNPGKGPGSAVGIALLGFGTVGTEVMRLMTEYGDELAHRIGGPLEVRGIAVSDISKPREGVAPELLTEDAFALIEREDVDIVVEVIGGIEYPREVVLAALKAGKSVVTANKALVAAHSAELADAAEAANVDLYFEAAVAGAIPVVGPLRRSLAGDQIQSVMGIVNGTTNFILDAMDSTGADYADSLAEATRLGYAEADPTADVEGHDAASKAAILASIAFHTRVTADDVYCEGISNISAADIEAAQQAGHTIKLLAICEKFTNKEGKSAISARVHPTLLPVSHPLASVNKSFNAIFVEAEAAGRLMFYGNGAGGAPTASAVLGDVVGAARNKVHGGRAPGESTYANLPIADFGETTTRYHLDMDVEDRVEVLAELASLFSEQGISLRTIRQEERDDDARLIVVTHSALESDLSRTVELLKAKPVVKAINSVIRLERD

As to `CC[C@H](C)[C@H](N)C(=O)O` [L-isoleucine], the results for the “% activity maintained at 50 mM” value at CgHSD [1], at CgHSD [2] and on CgHSD [4] were 61.0%, 50.1% and 76.5%, respectively. Moreover, the “% activity loss at 5 mM” value on CgHSD [3] is recorded as above 75%.

Consider `C[C@@H](O)[C@H](N)C(=O)O` [L-threonine], for which the “% retained activity at 50 mM” value at CgHSD [5] stood at 52.7%. Besides, the “% activity kept at 10 mM” value at CgHSD [6] and on CgHSD [7] was above 90% in each case. Moreover, the “% activity loss at 1 mM” value on CgHSD [8] was above 80%.

B1: Homoserine dehydrogenase from Corynebacterium glutamicum (CgHSD), wild type (enzyme, Corynebacterium glutamicum ATCC 13032, UniProt P08499 1-445, looked up)
chain: MTSASAPSFNPGKGPGSAVGIALLGFGTVGTEVMRLMTEYGDELAHRIGGPLEVRGIAVSDISKPREGVAPELLTEDAFALIEREDVDIVVEVIGGIEYPREVVLAALKAGKSVVTANKALVAAHSAELADAAEAANVDLYFEAAVAGAIPVVGPLRRSLAGDQIQSVMGIVNGTTNFILDAMDSTGADYADSLAEATRLGYAEADPTADVEGHDAASKAAILASIAFHTRVTADDVYCEGISNISAADIEAAQQAGHTIKLLAICEKFTNKEGKSAISARVHPTLLPVSHPLASVNKSFNAIFVEAEAAGRLMFYGNGAGGAPTASAVLGDVVGAARNKVHGGRAPGESTYANLPIADFGETTTRYHLDMDVEDRVGVLAELASLFSEQGISLRTIRQEERDDDARLIVVTHSALESDLSRTVELLKAKPVVKAINSVIRLERD
notes: Homoserine dehydrogenase (hom gene) of Corynebacterium glutamicum ATCC 13032, amplified from genomic DNA into pET-28a (pET-hom); printed mass of the monomer 46.4 kDa; also called wild-type CgHSD
In the case of B1, the “stoichiometry N” value in [9] came out at 4.

B2: Homoserine dehydrogenase from Corynebacterium glutamicum (CgHSD), I397V mutant (enzyme, Corynebacterium glutamicum ATCC 13032, UniProt P08499 1-445, looked up)
chain: MTSASAPSFNPGKGPGSAVGIALLGFGTVGTEVMRLMTEYGDELAHRIGGPLEVRGIAVSDISKPREGVAPELLTEDAFALIEREDVDIVVEVIGGIEYPREVVLAALKAGKSVVTANKALVAAHSAELADAAEAANVDLYFEAAVAGAIPVVGPLRRSLAGDQIQSVMGIVNGTTNFILDAMDSTGADYADSLAEATRLGYAEADPTADVEGHDAASKAAILASIAFHTRVTADDVYCEGISNISAADIEAAQQAGHTIKLLAICEKFTNKEGKSAISARVHPTLLPVSHPLASVNKSFNAIFVEAEAAGRLMFYGNGAGGAPTASAVLGDVVGAARNKVHGGRAPGESTYANLPIADFGETTTRYHLDMDVEDRVGVLAELASLFSEQGISLRTVRQEERDDDARLIVVTHSALESDLSRTVELLKAKPVVKAINSVIRLERD
Take B2: in [9], the “stoichiometry N” value is 4.

B3: Homoserine dehydrogenase from Corynebacterium glutamicum (CgHSD), A384D mutant (enzyme, Corynebacterium glutamicum ATCC 13032, UniProt P08499 1-445, looked up)
chain: MTSASAPSFNPGKGPGSAVGIALLGFGTVGTEVMRLMTEYGDELAHRIGGPLEVRGIAVSDISKPREGVAPELLTEDAFALIEREDVDIVVEVIGGIEYPREVVLAALKAGKSVVTANKALVAAHSAELADAAEAANVDLYFEAAVAGAIPVVGPLRRSLAGDQIQSVMGIVNGTTNFILDAMDSTGADYADSLAEATRLGYAEADPTADVEGHDAASKAAILASIAFHTRVTADDVYCEGISNISAADIEAAQQAGHTIKLLAICEKFTNKEGKSAISARVHPTLLPVSHPLASVNKSFNAIFVEAEAAGRLMFYGNGAGGAPTASAVLGDVVGAARNKVHGGRAPGESTYANLPIADFGETTTRYHLDMDVEDRVGVLAELDSLFSEQGISLRTIRQEERDDDARLIVVTHSALESDLSRTVELLKAKPVVKAINSVIRLERD
With B3, in data set [9], the “stoichiometry N” value worked out at 4.

The values are drawn from publication PMC10791936, “Engineering allosteric inhibition of homoserine dehydrogenase by semi-rational saturation mutagenesis screening” (Frontiers in Bioengineering and Biotechnology, 2024).
